The source of these data is ChEMBL document CHEMBL3044808, “Laboratory and field comparisons of insecticides to reduce infestation of Drosophila suzukii in berry crops” (2011).

The test system of experiment [1] is Drosophila suzukii. Description: Insecticidal activity against Drosophila suzukii assessed as mortality at 212.5 g/ha by direct application at 22 degC measured after 24 hr. It counts as functional, organism-based.
In experiment [2] the test system is Drosophila suzukii. Nature of the experiment: Insecticidal activity against Drosophila suzukii assessed as mortality at 223.9 g/ha by direct application at 22 degC measured after 24 hr. Type of experiment: functional.
The test system of experiment [3] is Drosophila suzukii. Nature of the experiment: Insecticidal activity against Drosophila suzukii assessed as male mortality at 3.31 g/ha by direct application at 22 degC measured after 24 hr. It counts as functional, organism-based.
The test system of experiment [4] is Drosophila suzukii. Nature of the experiment: Insecticidal activity against Drosophila suzukii assessed as male mortality at 41 g/ha by direct application at 22 degC measured after 24 hr. It counts as functional, organism-based.
Experiment [5] concerns Drosophila suzukii. Description: Insecticidal activity against Drosophila suzukii assessed as male mortality at 112.3 g/ha by direct application at 22 degC measured after 24 hr. It counts as functional, organism-based.
Experiment [6] relates to Drosophila suzukii. Description: Insecticidal activity against Drosophila suzukii assessed as male mortality at 2.3 g/ha by direct application at 22 degC measured after 24 hr. Type of experiment: functional, organism-based.
In experiment [7] the test system is Drosophila suzukii. Description: Insecticidal activity against Drosophila suzukii assessed as mortality at 113.8 g/ha by direct application at 22 degC measured after 24 hr. It counts as functional, organism-based.
Experiment [8] concerns Drosophila suzukii. Nature of the experiment: Insecticidal activity against Drosophila suzukii assessed as mortality at 1.1 g/ha by direct application at 22 degC measured after 24 hr. It counts as functional.
The subject of experiment [9] is Drosophila suzukii. Description: Insecticidal activity against Drosophila suzukii assessed as mortality at 70.2 g/ha by direct application at 22 degC measured after 24 hr. Type of experiment: functional, organism-based.
Experiment [10] relates to Drosophila suzukii. Description: Insecticidal activity against Drosophila suzukii assessed as mortality at 2.3 g/ha by direct application at 22 degC measured after 24 hr. It counts as functional.
The subject of experiment [11] is Drosophila suzukii. Nature of the experiment: Insecticidal activity against Drosophila suzukii assessed as mortality at 2.2 g/ha by direct application at 22 degC measured after 24 hr. Type of experiment: functional.
The test system of experiment [12] is Drosophila suzukii. Nature of the experiment: Insecticidal activity against Drosophila suzukii assessed as mortality at 341.5 g/ha by direct application at 22 degC measured after 24 hr. Type of experiment: functional.
In experiment [13] the test system is Drosophila suzukii. Nature of the experiment: Insecticidal activity against Drosophila suzukii assessed as mortality at 56.2 g/ha by direct application at 22 degC measured after 24 hr. Type of experiment: functional.
Experiment [14] has as its system Drosophila suzukii. Description: Insecticidal activity against Drosophila suzukii assessed as mortality at 24 g/ha by direct application at 22 degC measured after 24 hr. It counts as functional.
Experiment [15] deals with Drosophila suzukii. Nature of the experiment: Insecticidal activity against Drosophila suzukii assessed as mortality at 41 g/ha by direct application at 22 degC measured after 24 hr. Type of experiment: functional, organism-based.
Experiment [16] concerns Drosophila suzukii. Description: Insecticidal activity against Drosophila suzukii assessed as mortality at 62.3 g/ha by direct application at 22 degC measured after 24 hr. Type of experiment: functional.
In experiment [17] the test system is Drosophila suzukii. Nature of the experiment: Insecticidal activity against Drosophila suzukii assessed as mortality at 112.1 g/ha by direct application at 22 degC measured after 24 hr. Type of experiment: functional.
For experiment [18], the system named is Drosophila suzukii. Description: Insecticidal activity against Drosophila suzukii assessed as mortality at 112.2 g/ha by direct application at 22 degC measured after 24 hr. It counts as functional.
The test system of experiment [19] is Drosophila suzukii. Description: Insecticidal activity against Drosophila suzukii assessed as mortality at 112.3 g/ha by direct application at 22 degC measured after 24 hr. Type of experiment: functional, organism-based.
Experiment [20] concerns Drosophila suzukii. Description: Insecticidal activity against Drosophila suzukii assessed as mortality at 3.31 g/ha by direct application at 22 degC measured after 24 hr. It counts as functional, organism-based.
Experiment [21] has as its system Drosophila suzukii. Nature of the experiment: Insecticidal activity against Drosophila suzukii assessed as mortality at 1 g/ha by direct application at 22 degC measured after 24 hr. Type of experiment: functional.

Activity calls are given as the source filed them. The calls are words filed in the database; no cut-off is given here.

As to `O=C(NC(=O)c1c(F)cccc1F)Nc1ccc(OC(F)(F)C(F)OC(F)(F)F)c(Cl)c1` (stereo not drawn), the outcome in the experiment on Drosophila suzukii [1] was Active.

As for `CC1(C)C(C=C(Cl)Cl)C1C(=O)OCc1cccc(Oc2ccccc2)c1` (stereo not drawn) [PERMETHRIN], the mortality at 223.9 g/ha in the experiment on Drosophila suzukii [2] was 100%.

For the molecule `CNC(=O)c1cc(Cl)cc(C)c1NC(=O)c1cc(Br)nn1-c1ncccc1Cl`, the result in the experiment on Drosophila suzukii [3], with Drosophila suzukii [4], in the experiment on Drosophila suzukii [5], in the experiment on Drosophila suzukii [6] and in the experiment on Drosophila suzukii [7] was Active.

On to `CCOP(=S)(OCC)Oc1cc(C)nc(C(C)C)n1` [DIMPYLATE], for which the mortality at 1.1 g/ha with Drosophila suzukii [8] is 100%.

`CN1COCN(Cc2cnc(Cl)s2)/C1=N\[N+](=O)[O-]`: the result with Drosophila suzukii [3], in the experiment on Drosophila suzukii [4], in the experiment on Drosophila suzukii [5], in the experiment on Drosophila suzukii [6] and with Drosophila suzukii [9] was Active.

`CCOC(=O)CC(SP(=S)(OC)OC)C(=O)OCC` (stereo not drawn) [MALATHION]: the mortality at 2.3 g/ha with Drosophila suzukii [10] was determined as 100%. Further, the mortality at 2.2 g/ha with Drosophila suzukii [11] stood at 100%.

On to `CC1(C)C(C(=O)OC(C#N)c2cccc(Oc3ccccc3)c2)C1(C)C` (stereo not drawn) [FENPROPATHRIN], for which the mortality at 341.5 g/ha in the experiment on Drosophila suzukii [12] was 100%.

In the case of `CC(C)[C@H](C(=O)O[C@H](C#N)c1cccc(Oc2ccccc2)c1)c1ccc(Cl)cc1`, the mortality at 56.2 g/ha in the experiment on Drosophila suzukii [13] stood at 100%.

`CC1(C)C(C=C(Cl)Cl)C1C(=O)OC(C#N)c1ccc(F)c(Oc2ccccc2)c1` (stereo not drawn) [CYFLUTHRIN]: in the experiment on Drosophila suzukii [14], the mortality at 24 g/ha was 100%.

For the molecule `CNC(=O)Oc1cccc2ccccc12` [CARBARIL], the outcome with Drosophila suzukii [3], in the experiment on Drosophila suzukii [4], with Drosophila suzukii [5] and in the experiment with Drosophila suzukii [6] was Active. The mortality at 2.3 g/ha with Drosophila suzukii [10] was 100%.

As to `C/C=C(\C)C(=O)O[C@H]1C[C@@H](OC(C)=O)[C@@]2(C(=O)OC)CO[C@H]3[C@@H](O)[C@@](C)([C@]45O[C@@]4(C)[C@@H]4C[C@H]5O[C@@H]5OC=C[C@@]54O)[C@H]4[C@]1(CO[C@]4(O)C(=O)OC)[C@@H]32`, the result in the experiment with Drosophila suzukii [3], in the experiment with Drosophila suzukii [4], in the experiment on Drosophila suzukii [5], with Drosophila suzukii [6] and with Drosophila suzukii [15] was Active.

For `C=CCC1=C(C)C(OC(=O)C2C(C=C(C)C)C2(C)C)CC1=O` (stereo not drawn) [Allethrin], in the experiment on Drosophila suzukii [16], the mortality at 62.3 g/ha came out at 79%.

Take `Cc1c(COC(=O)[C@@H]2[C@H](/C=C(\Cl)C(F)(F)F)C2(C)C)cccc1-c1ccccc1` (relative stereo) [BIFENTHRIN]: the mortality at 112.1 g/ha in the experiment with Drosophila suzukii [17] worked out at 100%. Moreover, the mortality at 112.2 g/ha in the experiment with Drosophila suzukii [18] stood at 100%.

Turning to `O=S1OCC2C(CO1)C1(Cl)C(Cl)=C(Cl)C2(Cl)C1(Cl)Cl` (stereo not drawn), in the experiment with Drosophila suzukii [8], the outcome was Active.

As for `C/C(=N\C#N)N(C)Cc1ccc(Cl)nc1`, the result in the experiment on Drosophila suzukii [3], in the experiment on Drosophila suzukii [4], in the experiment with Drosophila suzukii [5], in the experiment with Drosophila suzukii [6] and in the experiment with Drosophila suzukii [19] was Active.

On to `CC[C@H](C)[C@H]1O[C@]2(C=C[C@@H]1C)C[C@@H]1C[C@@H](C/C=C(\C)[C@@H](O[C@H]3C[C@H](OC)[C@@H](O[C@H]4C[C@H](OC)[C@@H](O)[C@H](C)O4)[C@H](C)O3)[C@@H](C)/C=C/C=C3\CO[C@@H]4[C@H](O)C(C)=C[C@@H](C(=O)O1)[C@]34O)O2.CO[C@H]1C[C@H](O[C@H]2[C@H](C)O[C@@H](O[C@@H]3/C(C)=C/C[C@@H]4C[C@@H](C[C@]5(C=C[C@H](C)[C@@H](C(C)C)O5)O4)OC(=O)[C@@H]4C=C(C)[C@@H](O)[C@H]5OC/C(=C\C=C\[C@@H]3C)[C@]54O)C[C@@H]2OC)O[C@@H](C)[C@@H]1O`, for which the result in the experiment on Drosophila suzukii [3], in the experiment on Drosophila suzukii [4], in the experiment with Drosophila suzukii [5], in the experiment with Drosophila suzukii [6] and in the experiment with Drosophila suzukii [20] was Active.

Turning to `CNC(=O)ON=C(C)SC` [METHOMYL], in the experiment on Drosophila suzukii [21], the mortality at 1 g/ha came to 100%.
